Results as given in the kinase profiling compilation of Christmann-Franck et al. (2016).

Target: PRKCB2 (human) (UniProt P05771)
Experiment: radiometric filter-binding kinase assay, Kinase HotSpot
Conditions: compound 0.5 µM; ATP 10 µM

PRKCB2 (human), sequence (P05771 whole entry, looked up): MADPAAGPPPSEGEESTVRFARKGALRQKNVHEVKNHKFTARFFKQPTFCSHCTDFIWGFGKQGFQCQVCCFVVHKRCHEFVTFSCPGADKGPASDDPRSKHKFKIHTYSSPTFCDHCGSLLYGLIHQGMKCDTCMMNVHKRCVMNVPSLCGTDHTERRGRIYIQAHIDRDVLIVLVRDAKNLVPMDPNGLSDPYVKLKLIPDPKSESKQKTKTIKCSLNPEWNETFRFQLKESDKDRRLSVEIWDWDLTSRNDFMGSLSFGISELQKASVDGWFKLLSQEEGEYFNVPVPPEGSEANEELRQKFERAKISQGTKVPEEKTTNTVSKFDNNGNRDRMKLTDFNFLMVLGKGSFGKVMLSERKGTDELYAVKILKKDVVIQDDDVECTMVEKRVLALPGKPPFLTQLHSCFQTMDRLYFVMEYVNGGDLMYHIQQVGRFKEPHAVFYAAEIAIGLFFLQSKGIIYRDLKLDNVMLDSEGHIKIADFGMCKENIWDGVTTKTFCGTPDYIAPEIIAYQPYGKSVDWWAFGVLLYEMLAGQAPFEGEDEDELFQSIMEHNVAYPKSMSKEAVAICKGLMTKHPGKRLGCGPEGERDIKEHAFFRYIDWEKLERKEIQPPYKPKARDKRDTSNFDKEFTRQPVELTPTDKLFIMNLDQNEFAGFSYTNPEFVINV

| SMILES | residual activity [%] |
| --- | --- |
| CC(C)n1cnc2c(Nc3cccc(Cl)c3)nc(NCCO)nc21 | 99.7 |
| CCN1/C(=C/C(C)=O)Sc2ccc(OC)cc21 | 99.3 |
| Nc1nc(Nc2ccc(S(N)(=O)=O)cc2)nn1C(=O)c1c(F)cccc1F | 90.5 |
| O=C1Nc2cc(Br)ccc2/C1=C1/Nc2ccccc2/C1=N\O | 108 |
| Nc1n[nH]c2nnc(-c3c(-c4ccccc4)nn4ccccc34)cc12 | 99.7 |

Target: ULK1 (human) (UniProt O75385)
Experiment: as above
Conditions: compound 0.5 µM; ATP 10 µM

| SMILES | residual activity [%] |
| --- | --- |
| CC(C)n1cnc2c(Nc3cccc(Cl)c3)nc(NCCO)nc21 | 77.6 |
| CCN1/C(=C/C(C)=O)Sc2ccc(OC)cc21 | 115 |
| Nc1nc(Nc2ccc(S(N)(=O)=O)cc2)nn1C(=O)c1c(F)cccc1F | 62.5 |
| O=C1Nc2cc(Br)ccc2/C1=C1/Nc2ccccc2/C1=N\O | 95.3 |
| Nc1n[nH]c2nnc(-c3c(-c4ccccc4)nn4ccccc34)cc12 | 97.1 |

Target: BRAF (human) (UniProt P15056)
Experiment: as above
Conditions: compound 0.5 µM; ATP 10 µM

| SMILES | residual activity [%] |
| --- | --- |
| CC(C)n1cnc2c(Nc3cccc(Cl)c3)nc(NCCO)nc21 | 97 |
| CCN1/C(=C/C(C)=O)Sc2ccc(OC)cc21 | 95.3 |
| Nc1nc(Nc2ccc(S(N)(=O)=O)cc2)nn1C(=O)c1c(F)cccc1F | 55 |
| O=C1Nc2cc(Br)ccc2/C1=C1/Nc2ccccc2/C1=N\O | 98.2 |
| Nc1n[nH]c2nnc(-c3c(-c4ccccc4)nn4ccccc34)cc12 | 95.7 |

Target: MARK3 (human) (UniProt P27448)
Sequence (P27448 whole entry, looked up): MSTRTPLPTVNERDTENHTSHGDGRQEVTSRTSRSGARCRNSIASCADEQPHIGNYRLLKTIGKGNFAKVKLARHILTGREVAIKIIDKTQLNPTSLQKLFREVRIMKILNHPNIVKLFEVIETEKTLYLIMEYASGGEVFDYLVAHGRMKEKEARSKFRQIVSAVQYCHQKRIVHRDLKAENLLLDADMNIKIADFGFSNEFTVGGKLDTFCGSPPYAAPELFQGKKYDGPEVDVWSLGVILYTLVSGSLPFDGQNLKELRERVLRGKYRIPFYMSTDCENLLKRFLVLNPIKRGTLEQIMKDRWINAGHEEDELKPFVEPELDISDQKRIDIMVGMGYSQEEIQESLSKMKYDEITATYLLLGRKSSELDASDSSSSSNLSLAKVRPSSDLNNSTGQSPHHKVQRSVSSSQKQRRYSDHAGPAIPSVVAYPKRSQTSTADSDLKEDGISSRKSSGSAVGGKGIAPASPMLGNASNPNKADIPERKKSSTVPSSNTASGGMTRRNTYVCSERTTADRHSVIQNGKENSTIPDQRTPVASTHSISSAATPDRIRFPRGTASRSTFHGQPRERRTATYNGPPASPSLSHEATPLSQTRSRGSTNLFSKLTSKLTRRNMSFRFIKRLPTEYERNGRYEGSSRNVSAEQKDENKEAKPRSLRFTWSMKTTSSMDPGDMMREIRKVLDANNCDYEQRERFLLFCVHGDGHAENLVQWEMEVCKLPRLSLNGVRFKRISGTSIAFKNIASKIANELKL
Experiment: as above
Conditions: compound 0.5 µM; ATP 10 µM

| SMILES | residual activity [%] |
| --- | --- |
| CC(C)n1cnc2c(Nc3cccc(Cl)c3)nc(NCCO)nc21 | 92.3 |
| CCN1/C(=C/C(C)=O)Sc2ccc(OC)cc21 | 100 |
| Nc1nc(Nc2ccc(S(N)(=O)=O)cc2)nn1C(=O)c1c(F)cccc1F | 67.6 |
| O=C1Nc2cc(Br)ccc2/C1=C1/Nc2ccccc2/C1=N\O | 67 |
| Nc1n[nH]c2nnc(-c3c(-c4ccccc4)nn4ccccc34)cc12 | 99.3 |

Target: HIPK3 (human) (UniProt Q9H422)
Sequence (Q9H422 whole entry, looked up): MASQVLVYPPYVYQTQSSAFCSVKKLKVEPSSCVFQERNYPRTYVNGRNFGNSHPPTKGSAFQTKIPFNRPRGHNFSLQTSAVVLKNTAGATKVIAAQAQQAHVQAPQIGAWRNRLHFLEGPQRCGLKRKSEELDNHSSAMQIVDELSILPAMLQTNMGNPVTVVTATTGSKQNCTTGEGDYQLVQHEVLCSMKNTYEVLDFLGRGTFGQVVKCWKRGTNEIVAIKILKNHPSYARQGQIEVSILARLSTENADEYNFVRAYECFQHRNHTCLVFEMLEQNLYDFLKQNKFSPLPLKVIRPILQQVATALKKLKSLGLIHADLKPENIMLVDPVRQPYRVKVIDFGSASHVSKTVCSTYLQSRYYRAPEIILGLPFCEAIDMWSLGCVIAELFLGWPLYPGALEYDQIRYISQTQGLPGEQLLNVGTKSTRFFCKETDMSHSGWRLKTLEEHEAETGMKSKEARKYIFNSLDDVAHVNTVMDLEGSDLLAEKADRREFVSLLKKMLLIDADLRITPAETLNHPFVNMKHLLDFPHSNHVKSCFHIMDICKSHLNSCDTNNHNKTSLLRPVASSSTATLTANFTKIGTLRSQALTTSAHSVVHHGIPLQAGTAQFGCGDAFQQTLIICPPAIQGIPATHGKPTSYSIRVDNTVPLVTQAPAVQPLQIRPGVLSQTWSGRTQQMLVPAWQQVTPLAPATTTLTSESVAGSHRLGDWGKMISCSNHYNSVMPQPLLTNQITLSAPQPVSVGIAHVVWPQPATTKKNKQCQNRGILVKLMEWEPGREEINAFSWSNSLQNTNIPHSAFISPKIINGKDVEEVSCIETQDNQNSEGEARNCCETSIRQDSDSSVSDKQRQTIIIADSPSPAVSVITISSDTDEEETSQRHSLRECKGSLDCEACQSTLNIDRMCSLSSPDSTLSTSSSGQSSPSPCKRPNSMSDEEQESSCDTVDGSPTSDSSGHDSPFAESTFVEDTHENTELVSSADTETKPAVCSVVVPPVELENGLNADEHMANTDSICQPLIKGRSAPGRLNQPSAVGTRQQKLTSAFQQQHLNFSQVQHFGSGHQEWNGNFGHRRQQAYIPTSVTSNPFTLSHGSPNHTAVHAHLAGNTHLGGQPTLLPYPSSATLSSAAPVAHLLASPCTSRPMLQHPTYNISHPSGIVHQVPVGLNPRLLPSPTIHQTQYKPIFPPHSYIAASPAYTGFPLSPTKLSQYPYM
Experiment: as above
Conditions: compound 0.5 µM; ATP 10 µM

| SMILES | residual activity [%] |
| --- | --- |
| CC(C)n1cnc2c(Nc3cccc(Cl)c3)nc(NCCO)nc21 | 99.9 |
| CCN1/C(=C/C(C)=O)Sc2ccc(OC)cc21 | 100 |
| Nc1nc(Nc2ccc(S(N)(=O)=O)cc2)nn1C(=O)c1c(F)cccc1F | 91.2 |
| O=C1Nc2cc(Br)ccc2/C1=C1/Nc2ccccc2/C1=N\O | 64.8 |
| Nc1n[nH]c2nnc(-c3c(-c4ccccc4)nn4ccccc34)cc12 | 95.3 |

Target: DYRK1A (human) (UniProt Q13627)
Experiment: as above
Conditions: compound 0.5 µM; ATP 10 µM

| SMILES | residual activity [%] |
| --- | --- |
| CC(C)n1cnc2c(Nc3cccc(Cl)c3)nc(NCCO)nc21 | 88.6 |
| CCN1/C(=C/C(C)=O)Sc2ccc(OC)cc21 | 28.9 |
| Nc1nc(Nc2ccc(S(N)(=O)=O)cc2)nn1C(=O)c1c(F)cccc1F | 101 |
| O=C1Nc2cc(Br)ccc2/C1=C1/Nc2ccccc2/C1=N\O | 101 |
| Nc1n[nH]c2nnc(-c3c(-c4ccccc4)nn4ccccc34)cc12 | 102 |

Target: CHEK1 (human) (UniProt O14757)
Experiment: as above
Conditions: compound 0.5 µM; ATP 10 µM

| SMILES | residual activity [%] |
| --- | --- |
| CC(C)n1cnc2c(Nc3cccc(Cl)c3)nc(NCCO)nc21 | 87.1 |
| CCN1/C(=C/C(C)=O)Sc2ccc(OC)cc21 | 87.9 |
| Nc1nc(Nc2ccc(S(N)(=O)=O)cc2)nn1C(=O)c1c(F)cccc1F | 76.3 |
| O=C1Nc2cc(Br)ccc2/C1=C1/Nc2ccccc2/C1=N\O | 57.1 |
| Nc1n[nH]c2nnc(-c3c(-c4ccccc4)nn4ccccc34)cc12 | 103 |

Target: ITK (human) (UniProt Q08881)
Experiment: as above
Conditions: compound 0.5 µM; ATP 10 µM

| SMILES | residual activity [%] |
| --- | --- |
| CC(C)n1cnc2c(Nc3cccc(Cl)c3)nc(NCCO)nc21 | 96 |
| CCN1/C(=C/C(C)=O)Sc2ccc(OC)cc21 | 102 |
| Nc1nc(Nc2ccc(S(N)(=O)=O)cc2)nn1C(=O)c1c(F)cccc1F | 105 |
| O=C1Nc2cc(Br)ccc2/C1=C1/Nc2ccccc2/C1=N\O | 46.6 |
| Nc1n[nH]c2nnc(-c3c(-c4ccccc4)nn4ccccc34)cc12 | 90.8 |

Target: MAP3K14 (human) (UniProt Q99558)
Sequence (Q99558 whole entry, looked up): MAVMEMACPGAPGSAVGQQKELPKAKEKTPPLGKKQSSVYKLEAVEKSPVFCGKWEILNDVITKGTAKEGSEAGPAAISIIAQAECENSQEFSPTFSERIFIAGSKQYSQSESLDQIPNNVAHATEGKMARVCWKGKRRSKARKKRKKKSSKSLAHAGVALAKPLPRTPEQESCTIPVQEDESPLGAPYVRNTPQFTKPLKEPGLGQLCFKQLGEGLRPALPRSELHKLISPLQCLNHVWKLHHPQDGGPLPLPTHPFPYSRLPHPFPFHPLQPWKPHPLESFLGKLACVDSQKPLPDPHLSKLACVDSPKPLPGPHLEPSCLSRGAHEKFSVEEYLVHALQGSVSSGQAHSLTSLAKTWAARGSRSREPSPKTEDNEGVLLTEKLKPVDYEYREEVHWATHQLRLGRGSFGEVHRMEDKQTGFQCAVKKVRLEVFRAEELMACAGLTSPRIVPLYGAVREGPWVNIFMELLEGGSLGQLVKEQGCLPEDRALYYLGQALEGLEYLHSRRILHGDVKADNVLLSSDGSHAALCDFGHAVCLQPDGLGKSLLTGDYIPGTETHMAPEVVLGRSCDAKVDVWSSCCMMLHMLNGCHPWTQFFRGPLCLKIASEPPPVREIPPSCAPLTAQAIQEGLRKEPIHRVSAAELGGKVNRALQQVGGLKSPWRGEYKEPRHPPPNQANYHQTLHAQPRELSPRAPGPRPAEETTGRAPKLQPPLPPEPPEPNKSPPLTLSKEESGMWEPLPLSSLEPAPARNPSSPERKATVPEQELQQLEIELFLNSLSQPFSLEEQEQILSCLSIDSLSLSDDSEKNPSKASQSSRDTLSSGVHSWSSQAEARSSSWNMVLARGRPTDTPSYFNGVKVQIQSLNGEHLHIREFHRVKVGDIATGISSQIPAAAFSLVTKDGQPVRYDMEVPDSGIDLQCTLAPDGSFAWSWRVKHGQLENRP
Experiment: as above
Conditions: compound 0.5 µM; ATP 10 µM

| SMILES | residual activity [%] |
| --- | --- |
| CC(C)n1cnc2c(Nc3cccc(Cl)c3)nc(NCCO)nc21 | 97.4 |
| CCN1/C(=C/C(C)=O)Sc2ccc(OC)cc21 | 86.1 |
| Nc1nc(Nc2ccc(S(N)(=O)=O)cc2)nn1C(=O)c1c(F)cccc1F | 106 |
| O=C1Nc2cc(Br)ccc2/C1=C1/Nc2ccccc2/C1=N\O | 89.6 |
| Nc1n[nH]c2nnc(-c3c(-c4ccccc4)nn4ccccc34)cc12 | 102 |

Target: CLK3 (human) (UniProt P49761)
Sequence (P49761 whole entry, looked up): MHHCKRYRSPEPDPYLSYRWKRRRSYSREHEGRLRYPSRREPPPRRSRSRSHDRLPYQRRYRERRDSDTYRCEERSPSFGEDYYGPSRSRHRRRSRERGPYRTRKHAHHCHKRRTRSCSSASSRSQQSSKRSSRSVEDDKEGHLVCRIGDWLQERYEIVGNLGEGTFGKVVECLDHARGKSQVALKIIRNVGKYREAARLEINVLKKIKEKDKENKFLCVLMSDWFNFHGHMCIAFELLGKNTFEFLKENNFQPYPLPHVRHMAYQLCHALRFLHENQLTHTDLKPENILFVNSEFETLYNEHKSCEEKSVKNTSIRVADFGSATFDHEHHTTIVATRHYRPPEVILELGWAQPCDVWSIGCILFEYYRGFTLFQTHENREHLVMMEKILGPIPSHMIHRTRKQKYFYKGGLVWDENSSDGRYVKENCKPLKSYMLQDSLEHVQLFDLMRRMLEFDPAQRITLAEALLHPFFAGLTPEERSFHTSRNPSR
Experiment: as above
Conditions: compound 0.5 µM; ATP 10 µM

| SMILES | residual activity [%] |
| --- | --- |
| CC(C)n1cnc2c(Nc3cccc(Cl)c3)nc(NCCO)nc21 | 77.8 |
| CCN1/C(=C/C(C)=O)Sc2ccc(OC)cc21 | 95 |
| Nc1nc(Nc2ccc(S(N)(=O)=O)cc2)nn1C(=O)c1c(F)cccc1F | 65.8 |
| O=C1Nc2cc(Br)ccc2/C1=C1/Nc2ccccc2/C1=N\O | 71.2 |
| Nc1n[nH]c2nnc(-c3c(-c4ccccc4)nn4ccccc34)cc12 | 94.9 |

Target: CAMK4 (human) (UniProt Q16566)
Experiment: as above
Conditions: compound 0.5 µM; ATP 10 µM

| SMILES | residual activity [%] |
| --- | --- |
| CC(C)n1cnc2c(Nc3cccc(Cl)c3)nc(NCCO)nc21 | 101 |
| CCN1/C(=C/C(C)=O)Sc2ccc(OC)cc21 | 99.9 |
| Nc1nc(Nc2ccc(S(N)(=O)=O)cc2)nn1C(=O)c1c(F)cccc1F | 96.8 |
| O=C1Nc2cc(Br)ccc2/C1=C1/Nc2ccccc2/C1=N\O | 96.3 |
| Nc1n[nH]c2nnc(-c3c(-c4ccccc4)nn4ccccc34)cc12 | 94.2 |

Target: NUAK2 (human) (UniProt Q9H093)
Sequence (Q9H093 whole entry, looked up): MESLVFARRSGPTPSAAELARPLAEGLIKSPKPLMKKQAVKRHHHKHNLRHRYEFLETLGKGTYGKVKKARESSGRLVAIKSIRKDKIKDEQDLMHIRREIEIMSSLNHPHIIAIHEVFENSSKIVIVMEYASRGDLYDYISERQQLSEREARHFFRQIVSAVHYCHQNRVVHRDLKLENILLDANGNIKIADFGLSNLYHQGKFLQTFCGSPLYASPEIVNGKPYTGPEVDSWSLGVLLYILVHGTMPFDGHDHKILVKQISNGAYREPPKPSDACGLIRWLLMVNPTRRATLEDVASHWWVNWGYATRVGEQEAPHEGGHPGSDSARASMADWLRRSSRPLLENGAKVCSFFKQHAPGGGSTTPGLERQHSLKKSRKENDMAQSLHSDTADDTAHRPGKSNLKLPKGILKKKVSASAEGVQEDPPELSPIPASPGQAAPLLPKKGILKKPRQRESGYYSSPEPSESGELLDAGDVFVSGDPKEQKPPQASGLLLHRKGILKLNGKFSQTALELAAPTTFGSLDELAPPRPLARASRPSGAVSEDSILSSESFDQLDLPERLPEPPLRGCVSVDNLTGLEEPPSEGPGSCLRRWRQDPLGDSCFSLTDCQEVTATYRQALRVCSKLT
Experiment: as above
Conditions: compound 0.5 µM; ATP 10 µM

| SMILES | residual activity [%] |
| --- | --- |
| CC(C)n1cnc2c(Nc3cccc(Cl)c3)nc(NCCO)nc21 | 89.8 |
| CCN1/C(=C/C(C)=O)Sc2ccc(OC)cc21 | 107 |
| Nc1nc(Nc2ccc(S(N)(=O)=O)cc2)nn1C(=O)c1c(F)cccc1F | 34 |
| O=C1Nc2cc(Br)ccc2/C1=C1/Nc2ccccc2/C1=N\O | 73.4 |
| Nc1n[nH]c2nnc(-c3c(-c4ccccc4)nn4ccccc34)cc12 | 87.3 |

Target: TEC (human) (UniProt P42680)
Experiment: as above
Conditions: compound 0.5 µM; ATP 10 µM

| SMILES | residual activity [%] |
| --- | --- |
| CC(C)n1cnc2c(Nc3cccc(Cl)c3)nc(NCCO)nc21 | 113 |
| CCN1/C(=C/C(C)=O)Sc2ccc(OC)cc21 | 116 |
| Nc1nc(Nc2ccc(S(N)(=O)=O)cc2)nn1C(=O)c1c(F)cccc1F | 122 |
| O=C1Nc2cc(Br)ccc2/C1=C1/Nc2ccccc2/C1=N\O | 104 |
| Nc1n[nH]c2nnc(-c3c(-c4ccccc4)nn4ccccc34)cc12 | 96.1 |

Test system: ARAF (human), P10398 [Y301D/Y302D]
Experiment: as above
Conditions: compound 0.5 µM; ATP 10 µM

| SMILES | residual activity [%] |
| --- | --- |
| CC(C)n1cnc2c(Nc3cccc(Cl)c3)nc(NCCO)nc21 | 107 |
| CCN1/C(=C/C(C)=O)Sc2ccc(OC)cc21 | 128 |
| Nc1nc(Nc2ccc(S(N)(=O)=O)cc2)nn1C(=O)c1c(F)cccc1F | 93.1 |
| O=C1Nc2cc(Br)ccc2/C1=C1/Nc2ccccc2/C1=N\O | 99.8 |
| Nc1n[nH]c2nnc(-c3c(-c4ccccc4)nn4ccccc34)cc12 | 98.4 |

Target: EPHB1 (human) (UniProt P54762)
Experiment: as above
Conditions: compound 0.5 µM; ATP 10 µM

| SMILES | residual activity [%] |
| --- | --- |
| CC(C)n1cnc2c(Nc3cccc(Cl)c3)nc(NCCO)nc21 | 76.9 |
| CCN1/C(=C/C(C)=O)Sc2ccc(OC)cc21 | 90.6 |
| Nc1nc(Nc2ccc(S(N)(=O)=O)cc2)nn1C(=O)c1c(F)cccc1F | 84.1 |
| O=C1Nc2cc(Br)ccc2/C1=C1/Nc2ccccc2/C1=N\O | 72.3 |
| Nc1n[nH]c2nnc(-c3c(-c4ccccc4)nn4ccccc34)cc12 | 98.6 |

Target: EGFR (human) (UniProt P00533)
Experiment: as above
Conditions: compound 0.5 µM; ATP 10 µM

| SMILES | residual activity [%] |
| --- | --- |
| CC(C)n1cnc2c(Nc3cccc(Cl)c3)nc(NCCO)nc21 | 91.5 |
| CCN1/C(=C/C(C)=O)Sc2ccc(OC)cc21 | 99.1 |
| Nc1nc(Nc2ccc(S(N)(=O)=O)cc2)nn1C(=O)c1c(F)cccc1F | 97 |
| O=C1Nc2cc(Br)ccc2/C1=C1/Nc2ccccc2/C1=N\O | 89 |
| Nc1n[nH]c2nnc(-c3c(-c4ccccc4)nn4ccccc34)cc12 | 83.9 |

Target: MAP3K8 (human) (UniProt P41279)
Experiment: as above
Conditions: compound 0.5 µM; ATP 10 µM

| SMILES | residual activity [%] |
| --- | --- |
| CC(C)n1cnc2c(Nc3cccc(Cl)c3)nc(NCCO)nc21 | 92.2 |
| CCN1/C(=C/C(C)=O)Sc2ccc(OC)cc21 | 103 |
| Nc1nc(Nc2ccc(S(N)(=O)=O)cc2)nn1C(=O)c1c(F)cccc1F | 94.4 |
| O=C1Nc2cc(Br)ccc2/C1=C1/Nc2ccccc2/C1=N\O | 101 |
| Nc1n[nH]c2nnc(-c3c(-c4ccccc4)nn4ccccc34)cc12 | 95 |

Target: CDK2 CCNA2 (human) (UniProt P24941+P20248)
Experiment: as above
Conditions: compound 0.5 µM; ATP 10 µM

| SMILES | residual activity [%] |
| --- | --- |
| CC(C)n1cnc2c(Nc3cccc(Cl)c3)nc(NCCO)nc21 | 42 |
| CCN1/C(=C/C(C)=O)Sc2ccc(OC)cc21 | 89.7 |
| Nc1nc(Nc2ccc(S(N)(=O)=O)cc2)nn1C(=O)c1c(F)cccc1F | 2.21 |
| O=C1Nc2cc(Br)ccc2/C1=C1/Nc2ccccc2/C1=N\O | 7.66 |
| Nc1n[nH]c2nnc(-c3c(-c4ccccc4)nn4ccccc34)cc12 | 92.9 |
